This assay concerns MRP1 cells, doxorubicin viability shift, 10 uM compound. The assay can be described thus: doxorubicin EC50 increase in MRP-1 cells, dose response, cell-based, doxorubicin EC50 shift (AID 844). Particulars: for EC50: measured here: doxorubicin EC50 with compound.

The structures appear in SMILES notation. Calls of active or inactive are those of the source. No rule for the calls is given here.

Broadly, the EC50 is the concentration giving half of the maximal effect. Take `N#C/C(=N\Nc1ccccc1F)C(=N)N1CCCCC1`: the fold increase in Dox EC50 is 0.79 (inactive) and the EC50 is 4.26 µM.
The like results for `Oc1c(C=C2N=c3ccccc3=N2)sc(=S)n1-c1ccc(F)cc1` were, in that order, 0.63 (inactive) and 3.39 µM.
`CCOc1ccccc1CNC(=O)c1cc2oc3ccccc3c2n1CC`: the fold increase in Dox EC50 was 1.24 (inactive) and the EC50 stood at 6.7 µM.
`O=C(Cc1ccccc1F)Nc1cccc2cccnc12`: the fold increase in Dox EC50 was 1.68 and the EC50 was found to be 9.04 µM.
Regarding `CNC[C@H](O)c1ccc(O)c(O)c1`, the fold increase in Dox EC50 was 0.69 (inactive) and the EC50 is 3.75 µM.
Turning to `CCOc1ccc(NC(=O)N2CCC(n3c(=O)[nH]c4ccccc43)CC2)cc1`, the fold increase in Dox EC50 was 0.9 (inactive) and the concentration for a half-maximal effect (EC50) is 4.85 µM.
As to `CCC1(C)Cc2c(sc3nnn(CC(=O)Nc4ccc(C)cc4)c(=O)c23)CO1` (stereo not given), the fold increase in Dox EC50 was 1.07 (inactive) and the EC50 turned out to be 5.79 µM.
Take `COc1cc(/C=C(\C#N)c2ccccn2)ccc1OCc1ccccc1Cl`: the fold increase in Dox EC50 was 1.1 (inactive) and the EC50 came out at 5.95 µM.
As to `CC(C)(C)c1cc(Br)ccc1OCC(=O)Nc1ncn[nH]1`, the fold increase in Dox EC50 was 0.89 (inactive) and the EC50 came out at 4.78 µM.
Regarding `Cc1cc(/C=C2\NC(=O)N(Cc3ccc(Cl)cc3)C2=O)c(C)n1C`, the fold increase in Dox EC50 was 1.1 (inactive) and the concentration giving a half-maximal response (EC50) amounted to 5.93 µM.
Take `O=C(Nc1ncc(Cc2ccccc2Cl)s1)c1ccc(-c2cccc([N+](=O)[O-])c2)o1`: the fold increase in Dox EC50 is 0.81 (inactive) and the EC50 is 4.38 µM.
Take `Cc1ccccc1NC(=O)CC1SC(=O)N(c2ccccc2)C1=O` (stereo not given): the fold increase in Dox EC50 is 1.35 (inactive) and the EC50 is 7.29 µM.
Regarding `Cc1ccc(C)c(N2CCN(C(=O)Cc3ccc(-n4c(=O)[nH]c5ccsc5c4=O)cc3)CC2)c1`, the fold increase in Dox EC50 is 0.58 (inactive) and the EC50 was 3.12 µM.
Regarding `N=C(N)SCc1ccccc1Cl`, the fold increase in Dox EC50 was 0.42 (inactive) and the EC50 was 2.25 µM.
With `COc1ccc(NC(=O)COC(=O)c2c3c(nc4ccccc24)CCCC3)cc1Cl`, the fold increase in Dox EC50 is 0.68 (inactive) and the EC50 was found to be 3.65 µM.
As to `Cc1ccc(C)c2sc(NC(=O)c3ccc(N4CCCCC4)c([N+](=O)[O-])c3)nc12`, the fold increase in Dox EC50 is 1.05 (inactive) and the EC50 came out at 5.66 µM.
The like results for `CCOC(=O)CCCCC(=O)c1[nH]c(=O)[nH]c1CSc1nc(-c2ccccc2)c(C#N)c(=O)[nH]1` were, in that order, 1.22 (inactive) and 6.57 µM.
Regarding `Cc1noc(/C=C/N(C)C)c1S(=O)(=O)N1CCCC(C(=O)NC2CCCCC2)C1` (stereo not given), the fold increase in Dox EC50 was 0.97 (inactive) and the EC50 came to 5.23 µM.
On the same counts, the results for `CCOC(=O)C1=C(C)N=C2SC(CC)C(=O)N2C1c1cccc(F)c1` (stereo not given) are 1.14 (inactive) and 6.14 µM.
Regarding `O=C1CC(c2nc3ccccc3[nH]2)CN1c1cccc(C(F)(F)F)c1` (stereo not given), the fold increase in Dox EC50 was 1.24 (inactive) and the EC50 was 6.7 µM.
As to `Cc1ccccc1Cn1nc(C)c(NC(=O)c2noc3c2CCc2ccccc2-3)c1C`, the fold increase in Dox EC50 was 1.96 and the EC50 is 10.6 µM.
`O=C1C=C(O)CC(c2ccc(Cl)cc2)C1` (stereo not given): the fold increase in Dox EC50 is 1.04 (inactive) and the EC50 is 5.6 µM.
For the compound `COc1ccc(-c2cc(C(=O)Nc3sc4c(c3C#N)CCCC4)c3ccccc3n2)cc1`, the fold increase in Dox EC50 was 1.18 (inactive) and the EC50 is 6.37 µM.
Consider `COc1ccc(C2C(C(=O)OCC(=O)NC(C)(C)C)CCC(=O)N2c2ccc(C)cc2)cc1OC` (stereo not given), for which the fold increase in Dox EC50 is 0.81 (inactive) and the EC50 stood at 4.36 µM.
As to `CC1CCN(c2ncnc3c2cnn3-c2ccccc2)CC1`, the fold increase in Dox EC50 is 0.31 (inactive) and the EC50 is 1.65 µM.
With `Cc1c(N2C(=O)/C(=C/c3ccccc3)SC2=S)c(=O)n(-c2ccccc2)n1C`, the fold increase in Dox EC50 is 0.58 (inactive) and the EC50 turned out to be 3.15 µM.
Regarding `COc1cccc(/C=N/NC(=O)Cn2nc(C)c([N+](=O)[O-])c2C)c1O`, the fold increase in Dox EC50 was 0.12 (inactive) and the EC50 came to 0.673 µM.
`Cc1cccc(NC(=O)/C(=C\c2ccc([N+](=O)[O-])o2)NC(=O)c2ccc(Cl)cc2)c1`: the fold increase in Dox EC50 was 0.75 (inactive) and the EC50 worked out at 4.04 µM.
With `CCn1c(SCc2ccc(Cl)cc2)nc2nc3c(cc2c1=O)CCCC3`, the fold increase in Dox EC50 was 0.77 (inactive) and the EC50 was 4.17 µM.
In the case of `O=C(NC(=S)Nc1ccccc1N1CCOCC1)c1ccc(-c2cc(Cl)ccc2Cl)o1`, the fold increase in Dox EC50 was 1 (inactive) and the EC50 amounted to 5.42 µM.
Regarding `Cc1noc(/C=C/N(C)C)c1S(=O)(=O)N1CCCC(C(=O)N2CCCCC2)C1` (stereo not given), the fold increase in Dox EC50 was 0.74 (inactive) and the EC50 was found to be 3.98 µM.
For `C=CCc1c(C)nc(-c2ccccc2)nc1N/N=C(\C)c1ccccc1`, the fold increase in Dox EC50 was 0.43 (inactive) and the EC50 worked out at 2.34 µM.
The like results for `CSc1ncc(Cl)c(C(=O)Nc2nnc(SC)s2)n1` were, in that order, 1.12 (inactive) and 6.07 µM.
Turning to `Cn1c(=O)n(C/C=C/c2ccccc2)c(=O)c2c1nc1n2CCCN1c1ccc(F)cc1`, the fold increase in Dox EC50 was 0.76 (inactive) and the EC50 turned out to be 4.12 µM.
`COc1ccc(S(=O)(=O)N(CC(=O)N2CCN(c3ccccc3OC)CC2)c2ccccc2)cc1`: the fold increase in Dox EC50 was 0.46 (inactive) and the EC50 is 2.49 µM.
For `O=C1CC(N2CCC(n3c(=O)[nH]c4ccccc43)CC2)C(=O)N1c1ccc(F)cc1` (stereo not given), the fold increase in Dox EC50 is 1.41 (inactive) and the EC50 came out at 7.59 µM.
The like results for `C=C(Cl)COc1ccc2c(CCCC)cc(=O)oc2c1` were, in that order, 0.81 (inactive) and 4.35 µM.
Consider `CC1CCc2nn(CC(=O)N3CCN(C(=O)c4ccco4)CC3)cc2C1` (stereo not given), for which the fold increase in Dox EC50 was 0.66 (inactive) and the EC50 was determined as 3.57 µM.
As to `COc1ccc(CSC2=NCCN2)cc1Cl`, the fold increase in Dox EC50 is 0.63 (inactive) and the EC50 came out at 3.4 µM.
As for `Cc1cccc2c3nc4ccccc4nc3n(CCCN3C(=O)c4ccccc4C3=O)c12`, the fold increase in Dox EC50 is 0.13 (inactive) and the EC50 was 0.717 µM.
As for `Cc1cc(C)cc(NC(=O)c2oc3ccccc3c2COc2ccccc2)c1`, the fold increase in Dox EC50 is 0.88 (inactive) and the EC50 amounted to 4.78 µM.
As to `Fc1ccc(-n2nnnc2-c2cnc(-c3cccs3)nc2C(F)(F)F)cc1`, the fold increase in Dox EC50 is 0.6 (inactive) and the EC50 was determined as 3.24 µM.
For the compound `CC(C)(C)c1ccc(C(=O)CSc2ncn[nH]2)cc1`, the fold increase in Dox EC50 is 0.82 (inactive) and the EC50 turned out to be 4.41 µM.
As for `CCc1ccc(/C(C)=N/Nc2cc(Cl)nc(C)n2)cc1`, the fold increase in Dox EC50 is 0.69 (inactive) and the EC50 was 3.75 µM.
Turning to `CCc1nnc(NC(=O)C2CCCN2S(=O)(=O)c2ccccc2)s1` (stereo not given), the fold increase in Dox EC50 is 1.46 (inactive) and the EC50 was found to be 7.89 µM.

For the origin of these results see PubChem BioAssay AID844 (SRMLSC, 2007).
